Consider 89 sequences from the OligoGym collection.

Several values for one entry are separate records, joined by “and”; a condition that tells them apart may be missing. Equal entries are not always repeated. After the bases stand the sugars from the 5' end (letter, count) and the backbone: PS all phosphorothioate, else s phosphorothioate and o phosphodiester by linkage. Methylation of C is not given here. e = 2'-O-(2-methoxyethyl) (MOE); k = constrained ethyl (cEt); d = 2'-deoxy (DNA)

One data set addresses IRF4. To be noted: ASO, MM.1R, 0.0625 µM.
As for GGGTATTTATAACCGG (sugars k3 d10 k3, PS), the target mRNA inhibition was -16% and 5% and 1%.

Regarding TAGTTTTATGTTAGCC (sugars k3 d10 k3, PS), the target mRNA inhibition worked out at 4%.

The same data set, now with this note: ASO, MM.1R, 0.074 µM.
On to GGGTATTTATAACCGG (sugars k3 d10 k3, PS), for which the target mRNA inhibition was -4%. On to TAGTTTTATGTTAGCC (sugars k3 d10 k3, PS), for which the target mRNA inhibition was -1%.

The same data set, now with this note: ASO, MM.1R, 0.222 µM.
For GGGTATTTATAACCGG (sugars k3 d10 k3, PS), the target mRNA inhibition is -19%. On the same count and under the same terms, to TAGTTTTATGTTAGCC (sugars k3 d10 k3, PS) belongs 4%.

The data set is the same for the next values; noted with them: ASO, MM.1R, 0.25 µM.
For TAGTTTTATGTTAGCC (sugars k3 d10 k3, PS), the target mRNA inhibition came to 18%.

The same data set, now with this note: ASO, MM.1R, 0.666 µM.
GGGTATTTATAACCGG (sugars k3 d10 k3, PS): the target mRNA inhibition was -4%. Same read-out and setting: under TAGTTTTATGTTAGCC (sugars k3 d10 k3, PS) stands 22%.

The data set is the same for the next values; noted with them: ASO, MM.1R, 1 µM.
With GGTAGTAGACCACAGT (sugars k3 d10 k3, PS), the target mRNA inhibition came out at 23%. Same read-out and setting: to “CAGTGATGTCAGGTTT (sugars k3 d9 k3 e1, PS)” belongs 49%; to “AGCTTGATAAAGGCTG (sugars kddddddddddkekek, PS)”, 1%. As for CTCATCACCGAACACA (sugars k3 d10 k3, PS), the target mRNA inhibition was determined as 8%. On the same count and under the same terms, to “CTATAGTGTTCCAGGA (sugars k3 d9 k3 e1, PS)” belongs 31%; to ACTGTATGGAACCCCA (sugars k3 d10 k3, PS), 30%; to TGTCACCTGGCAACCT (sugars k3 d10 k3, PS), -4%.

“GAAGCATTTTATCATC (sugars kdddddddddkekeke, PS)”: the target mRNA inhibition amounted to 4%. With “TTGATGTGATAGCTGA (sugars kkddddddddddkeke, PS)”, the target mRNA inhibition came to 11%. The same measure, in the same setting: under “ATGTGATAGCTGAGCT (sugars kddddddddddkekek, PS)” stands -3%; under “ACTGCTTGAGGTTTTC (sugars kkkdddddddddkeke, PS)”, 38%; under GGGTATTTATAACCGG (sugars k3 d10 k3, PS), 1% and 7% and 26%. The same measure, in the same setting: under CATTGCTAGATTCTCC (sugars k3 d10 k3, PS) stands 18% and 30%; under TGGAGAAGTCCCGTGG (sugars k3 d10 k3, PS), -9%; under “CTTGATAAAGGCTGAA (sugars kkdddddddddekeke, PS)”, 19%.

For “GAAGCATTTTATCATC (sugars kkdddddddddkekek, PS)”, the target mRNA inhibition was -20%. Still for that read-out and setting: under “AATGTGTATTACTCTT (sugars kkdddddddddekeke, PS)” stands 24% and 30%; under “CTCTATAGTGTTCCAG (sugars kkdddddddddkekek, PS)”, 22%. On the same count and under the same terms, to “AAGTGTCTAAAGTCCC (sugars kkdddddddddkekek, PS)” belongs 12% and 22%; to CTGAAAGCGAGTCAGA (sugars k3 d10 k3, PS), 6%. Turning to “TCTATAGTGTTCCAGG (sugars kkdddddddddkekek, PS)”, the target mRNA inhibition was found to be 28%. On the same count and under the same terms, to TGTAACGCACCCGCAG (sugars k3 d10 k3, PS) belongs -4%; to TTTCAGGAGCTAGTTT (sugars k3 d10 k3, PS), 8%; to “CTGCTTGAGGTTTTCC (sugars kddddddddddkekek, PS)”, 8%. Still for that read-out and setting: to AGGGAGCTCATTTTGA (sugars k3 d10 k3, PS) belongs -8%.

On to “TGCTTGAGGTTTTCCT (sugars k3 d9 k3 e1, PS)”, for which the target mRNA inhibition stood at 46%.

GACGAACGCGCAAAAC (sugars k3 d10 k3, PS): the target mRNA inhibition amounted to 15%. Same read-out and setting: under TGCAGCACCGTGGTGC (sugars k3 d10 k3, PS) stands -1%; under “GTTGGCTGGTCTTTGT (sugars kddddddddddkekek, PS)”, 23%. On the same count and under the same terms, under CTGAGTTACCGCATTG (sugars k3 d10 k3, PS) stands 49% and 54%. Consider “AGTGATGTCAGGTTTT (sugars kkdddddddddekeke, PS)”, for which the target mRNA inhibition amounted to 33%. As for TAGTTTTATGTTAGCC (sugars k3 d10 k3, PS), the target mRNA inhibition amounted to 45%.

As for TCCACGCGCGGAGGAC (sugars k3 d10 k3, PS), the target mRNA inhibition was -43%.

The same data set, now with this note: ASO, MM.1R, 2 µM.
Take GGGTATTTATAACCGG (sugars k3 d10 k3, PS): the target mRNA inhibition was 9%. On the same count and under the same terms, to TAGTTTTATGTTAGCC (sugars k3 d10 k3, PS) belongs 39%.

The same data set, now with this note: ASO, MM.1R, 4 µM.
As for GGGTATTTATAACCGG (sugars k3 d10 k3, PS), the target mRNA inhibition is 12% and 24% and 34%. The same measure, in the same setting: to TAGTTTTATGTTAGCC (sugars k3 d10 k3, PS) belongs 78%.

The data set is the same for the next values; noted with them: ASO, SK-MEL-28, 4 µM.
As to TGCTGATCCTGGGAGT (sugars k3 d10 k3, PS), the target mRNA inhibition worked out at 79%.

For the sequence GCGCAAAACCCCTCAA (sugars k3 d10 k3, PS), the target mRNA inhibition is 22%. The same measure, in the same setting: under CTGTTAGCTACAAAGA (sugars k3 d10 k3, PS) stands 56%; under TCAGCTCCACTGTTAA (sugars k3 d10 k3, PS), 73%.

Turning to CTGCATTTGCAAATAA (sugars k4 d8 k4, PS), the target mRNA inhibition was -8%.

With GCTACGCAATCTTCTG (sugars k3 d10 k3, PS), the target mRNA inhibition worked out at 58%.

As for GGACAGCCAAACAAAC (sugars k3 d10 k3, PS), the target mRNA inhibition turned out to be 7%. Same read-out and setting: under CTTAGAATGCATAACA (sugars k3 d10 k3, PS) stands 26%. For the sequence GCTTCCCGTTGCCGCA (sugars k3 d10 k3, PS), the target mRNA inhibition was determined as 18%.

AAAGGAGGTAGTGGCC (sugars k3 d10 k3, PS): the target mRNA inhibition came to 21%. Still for that read-out and setting: to TCCAGGTGGCTCAGCA (sugars k3 d10 k3, PS) belongs 41%. Consider GTTAGCTACAAAGAGC (sugars k3 d10 k3, PS), for which the target mRNA inhibition was found to be 41%.

For the sequence GGGTATTTATAACCGG (sugars k3 d10 k3, PS), the target mRNA inhibition was determined as 59%. Still for that read-out and setting: to TTACTTCCCTGAGAAA (sugars k4 d8 k4, PS) belongs 14%.

With CCTCAGGGAATCCCTT (sugars k3 d10 k3, PS), the target mRNA inhibition was 30%. Same read-out and setting: under GCACGGACGAACGCGC (sugars k3 d10 k3, PS) stands 23%; under GGCTAATGAAATGTCA (sugars k3 d10 k3, PS), 64%. Same read-out and setting: to GAGAGCCTTCACGCAC (sugars k3 d10 k3, PS) belongs 23%; to TACTGCTTGAGGTTTT (sugars k3 d10 k3, PS), 50%; to TTTTAAGGCCCTGTCA (sugars k3 d10 k3, PS), 18%. The same measure, in the same setting: to GTAAAGCCCAAAGTTA (sugars k3 d10 k3, PS) belongs 27%; to CCTTAGGATAATATAC (sugars k3 d10 k3, PS), 23%.

GACAGCTTCTTTGAAG (sugars k3 d10 k3, PS): the target mRNA inhibition stood at 36%. Still for that read-out and setting: under AGAAAACCCCCCTCTC (sugars k3 d10 k3, PS) stands 23%; under GGCAAGTTCTGCTGTC (sugars k3 d10 k3, PS), 58%. Same read-out and setting: to GAACATCTCAGATACA (sugars k3 d10 k3, PS) belongs 42%; to ACTGACTAACAGGGAG (sugars k3 d10 k3, PS), 49%. Still for that read-out and setting: under CACGAGGAAGCATAGA (sugars k3 d10 k3, PS) stands 56%; under TAATTATGCAGAAGCT (sugars k3 d10 k3, PS), -3%. Regarding AGAAAGAGCTGGTAGG (sugars k3 d10 k3, PS), the target mRNA inhibition came to 36%. The same measure, in the same setting: under ACTGGATCTGAATTGT (sugars k3 d10 k3, PS) stands 57%. The same measure, in the same setting: to GAGAAACGGCCTGGAG (sugars k3 d10 k3, PS) belongs 44%. In the case of AGTACTTGGACAGAAG (sugars k3 d10 k3, PS), the target mRNA inhibition came out at 43%. On the same count and under the same terms, to GGCCGGCCCGGGCGCA (sugars k3 d10 k3, PS) belongs 1%; to AAAGCATAGAGTCACC (sugars k3 d10 k3, PS), 34%. On the same count and under the same terms, under TGGCACCAAAAGTACC (sugars k3 d10 k3, PS) stands 34%; under AAAGATGCCAGAGGGC (sugars k3 d10 k3, PS), 23%; under GGCCTTTACAAAGAAC (sugars k3 d10 k3, PS), -19%. For the sequence GAATGCTCTCCATCAA (sugars k3 d10 k3, PS), the target mRNA inhibition worked out at 45%. Same read-out and setting: to CATCACTGCAGTTCAC (sugars k3 d10 k3, PS) belongs 47%; to GCAACTAGCAGGGCAC (sugars k3 d10 k3, PS), 53%; to TCCTGAGACAAGTGCT (sugars k3 d10 k3, PS), 55%. Regarding GCGCGGACGCACGGAG (sugars k3 d10 k3, PS), the target mRNA inhibition was determined as 2%. Take GCAAGTTTTCTCTGTC (sugars k3 d10 k3, PS): the target mRNA inhibition stood at 56%. Same read-out and setting: to TCCTCAAAGTCATTGC (sugars k3 d10 k3, PS) belongs 32%. As to ACGAAGATTCAAAAGG (sugars k3 d10 k3, PS), the target mRNA inhibition turned out to be 36%. Same read-out and setting: under CTACCTCAGTTTGTGA (sugars k3 d10 k3, PS) stands 41%.

Regarding ATATTCCAACAGGCGG (sugars k3 d10 k3, PS), the target mRNA inhibition amounted to 53%.

For TGCTTTGGGCACCAAA (sugars k3 d10 k3, PS), the target mRNA inhibition came to 52%. TAGTTTTATGTTAGCC (sugars k3 d10 k3, PS): the target mRNA inhibition was 75%. Same read-out and setting: under ATTTTTTGGTTAGTCC (sugars k3 d10 k3, PS) stands 53%; under TGCCAGAGGGCAAGAT (sugars k3 d10 k3, PS), 2%; under CACCATTCAGACAGAT (sugars k3 d10 k3, PS), -67%.

On to CCTAGATAACATGAGA (sugars k3 d10 k3, PS), for which the target mRNA inhibition was determined as 26%. Still for that read-out and setting: to ACATACCTACAAGCAG (sugars k3 d10 k3, PS) belongs 45%; to TGTGAACATCTCAGAT (sugars k3 d10 k3, PS), 12%. The same measure, in the same setting: under CATTACGAGAGGGTCT (sugars k3 d10 k3, PS) stands 44%; under ACACGGGAATTTCCAT (sugars k3 d10 k3, PS), 56%.
